Structures are written as SMILES.

The assay deals with T1, IsP (Pseudideonella sakaiensis, UniProt A0A0K8P6T7).
T1 construct: gene ISF6_4831; heterologously expressed and purified
As to the kind of experiment: initial rates by RP-HPLC, Michaelis-Menten fit. It is filed as biochemical. The following applies: 50 °C, 10 min, 0-2 mM substrate, 0.01-0.5 μM enzyme. The text has this:
initial rates by RP-HPLC, Michaelis-Menten fit on IsP

T1 sequence (A0A0K8P6T7 28-290): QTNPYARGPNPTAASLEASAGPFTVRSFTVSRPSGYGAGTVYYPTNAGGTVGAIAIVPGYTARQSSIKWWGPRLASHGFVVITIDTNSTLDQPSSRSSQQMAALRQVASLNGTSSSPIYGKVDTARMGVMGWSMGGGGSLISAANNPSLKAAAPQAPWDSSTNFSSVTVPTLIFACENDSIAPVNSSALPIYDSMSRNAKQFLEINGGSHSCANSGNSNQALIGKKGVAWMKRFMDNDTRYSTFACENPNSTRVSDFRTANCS

`O=C(O)c1ccc(C(=O)OCCOC(=O)c2ccc(C(=O)OCCOC(=O)c3ccc(C(=O)O)cc3)cc2)cc1` [TETET]: the Km was 58 ± 29 µM. In the case of `O=C(O)c1ccc(C(=O)OCCOC(=O)c2ccc(C(=O)OCCO)cc2)cc1` [TETE], the Km came to 140 ± 36 µM.

These data come from paper PMC10108200, “Reaction Pathways for the Enzymatic Degradation of Poly(Ethylene Terephthalate): What Characterizes an Efficient PET‐Hydrolase?” (Chembiochem, 2022).
